Data: patent US11760889B2, “Unsaturated fatty alcohol derivatives from natural oil metathesis” (priority 2012, dated 2023)

Experiments:
[1] = Anionic emulsifier: emulsion stability testing of EW concentrate (modified ASTM E1116-98)
Protocol: Turbidity changes are noted and recorded.
A Mohr pipette is used to feed EW concentrate to each cylinder. Cylinders are stoppered and inverted ten times, then allowed to stand for 0.5, 1, and 24 h while recording stability at each time as type and % separation.
Spontaneity is recorded according to the following criteria: (1) poor: very thin emulsion cloud with major separation of oil droplets; (2) fair: thin emulsion cloud with minor separation of oil droplets; (3) good: thin emulsion cloud reaches the bottom of the cylinder without separation of any type; (4) excellent: thick emulsion cloud reaches the bottom of the cylinder without separation of any type.

[2] = Water-soluble herbicide formulation testing (standard dilution test, emulsion stability); type: physicochemical; parameters: key to Emulsion stability, mL separation, 24 h: Tr = trace; settings: 342 ppm water;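 further: diluted in a 50 mL Nessler cylinder held at 30 °C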
Protocol: Surfactant candidates for water soluble herbicide applications are examined as a replacement for the anionic, nonionic, or anionic/nonionic blend portion and compared to a known industry adjuvant standard for use in paraquat, a water soluble herbicide concentrate formulation. A standard dilution test is conducted whereby the concentrates are diluted in water to determine if solubility is complete.
The cylinder is stoppered and inverted ten times. Solubility is recorded as complete or incomplete. Cylinders are allowed to stand and the amount (in mL) and type of separation are recorded after 30 min., 1 h, 2 h, and 24 h. Results of the solubility testing appear in Table 3 below.
An eight to ten mole alkyl phenol ethoxylate surfactant (0.7 g) is added and vigorously mixed for 30 s. Test sample (0.7 g) is added and mixing resumes for 30 s.
Test sample (0.7 g) is added and vigorously mixed for 30 s. Sodium linear alkylbenzene sulfonate (“NaLAS,” 0.7 g) is added and mixing resumes for 30 s.

[3] = Surfactant phase behavior study (cross-polarized microscopy); type: physicochemical; settings: room temperature (20-22° C.)
Protocol: Phase behavior is observed using an Olympus BH-2 cross-polarized microscope at 100-400× and room temperature (20° C. to 22° C.). The inventive monounsaturated sulfates and ethoxylate sulfates are compared with their saturated analogs, and in some cases, commercial surfactants.
Samples are prepared by diluting the most concentrated product gradually with deionized water. When the surfactant concentration approaches a phase transition, the concentration is varied at 2-4% intervals to estimate the phase boundary. The actives level reported in Table 15 for each phase boundary is within ±5% of the true boundary.
Samples are loaded between a microscope slide and cover glass and are allowed to equilibrate before observation. Microscopic texture is analyzed and used to determine the phase. For some samples, an AR 2000 rheometer (TA Instruments) is used to measure viscosity at 25° C. to further verify phase behavior.

[4] = Adjuvant (anionic/nonionic) test sample

Compound	% Separation, 1 h ([1]; 34 ppm water) [%]	% Separation, 24 h ([1]; 34 ppm water) [%]	% Separation, 1 h ([1]; 1000 ppm water) [%]	% Separation, 24 h ([1]; 1000 ppm water) [%]	Estimated Phase Region: Hexagonal [3]	Estimated Phase Region: Lamellar [3]	Estimated Phase Region: Solid/gum/paste [3]	Estimated Phase Region: Unknown [3]	Estimated Phase Region: Isotropic Clear [3]	Emulsion stability, mL separation, 1 h [2, 4] [mL]	Emulsion stability, mL separation, 24 h [2, 4] [mL]	Emulsion stability, mL separation, 1 h ([2]; Anionic test sample) [mL]	Emulsion stability, mL separation, 24 h ([2]; Anionic test sample) [mL]	Emulsion stability, mL separation, 1 h ([2]; Nonionic test sample) [mL]	Emulsion stability, mL separation, 24 h ([2]; Nonionic test sample)
1 Mole Ethoxylated C10 Alcohol, Sodium Sulfate [A10-6]	4	4.9	3	3.2	–	–	–	–	–	0	0	0	0	0	Tr
1 Mole Ethoxylated C12 Alcohol, Sodium Sulfate [A12-6]	4.3	5.2	2.7	3.7	–	–	–	–	–	0	0	0	0	0	0 mL
3 Mole Ethoxylated C10 Alcohol, Sodium Sulfate [A10-9]	4	3.6	3.5	3.9	–	–	–	–	–	0	0	0	0	0	0 mL
5 Mole Ethoxylated C10 Alcohol, Sodium Sulfate [A10-12]	3.6	4	3.4	4.3	–	–	–	–	–	0	0	0	0	0	0 mL
5 Mole Ethoxylated C12 Alcohol, Sodium Sulfate [A12-12]	4.1	4.5	3	3.8	–	–	–	–	–	0	0	0	0	0	0 mL
7 Mole Ethoxylated C10 Alcohol, Sodium Sulfate [A10-15]	3.5	3.9	3	4.1	–	–	–	–	–	0	0	0	0	0	0 mL
7 Mole Ethoxylated C12 Alcohol, Sodium Sulfate [A12-15]	3.5	3.9	3.5	4	–	–	–	–	–	0	0	0	0	0	0 mL
15 Mole Ethoxylated C10 Alcohol, Sodium Sulfate [A10-18]	2.5	2.8	4	4	–	–	–	–	–	0	0	0	0	0	0 mL
15 Mole Ethoxylated C12 Alcohol, Sodium Sulfate [A12-18]	3	4.3	2.5	3.9	–	–	–	–	–	0	0	0	0	0	0 mL
CCCCCCCCCCOS(=O)(=O)[O-].[Na+] [sat. analog of A10-3, reference compound]	–	–	–	–	41-59 % actives	–	59-100 % actives	–	0-41 % actives	–	–	–	–	–	–

More lines, main results first:

% Separation, 1 h ([1]; 34 ppm water) [%]	% Separation, 24 h ([1]; 34 ppm water) [%]	% Separation, 1 h ([1]; 1000 ppm water) [%]	% Separation, 24 h ([1]; 1000 ppm water) [%]	Estimated Phase Region: Hexagonal [3]	Estimated Phase Region: Lamellar [3]	Estimated Phase Region: Solid/gum/paste [3]	Estimated Phase Region: Unknown [3]	Estimated Phase Region: Isotropic Clear [3]	Compound	Emulsion stability, mL separation, 1 h [2, 4] [mL]	Emulsion stability, mL separation, 24 h [2, 4] [mL]	Emulsion stability, mL separation, 1 h ([2]; Anionic test sample) [mL]	Emulsion stability, mL separation, 24 h ([2]; Anionic test sample) [mL]	Emulsion stability, mL separation, 1 h ([2]; Nonionic test sample) [mL]	Emulsion stability, mL separation, 24 h ([2]; Nonionic test sample)
3.8	4.3	2.8	3	–	–	–	–	–	1 Mole Ethoxylated C10 Alcohol, Ammonium Sulfate [A10-5]	–	–	–	–	–	–
4	4.1	3	3.5	–	–	–	–	–	1 Mole Ethoxylated C12 Alcohol, Ammonium Sulfate [A12-5]	–	–	–	–	–	–
3.5	3.9	3.5	3.5	–	–	–	–	–	3 Mole Ethoxylated C10 Alcohol, Ammonium Sulfate [A10-8]	–	–	–	–	–	–
3	4	3.7	3.9	–	–	–	–	–	3 Mole Ethoxylated C12 Alcohol, Ammonium Sulfate [A12-8]	–	–	–	–	–	–
3.9	5	2.5	3.1	–	–	–	–	–	5 Mole Ethoxylated C10 Alcohol, Ammonium Sulfate [A10-11]	–	–	–	–	–	–
3.6	3.8	2.1	3	–	–	–	–	–	5 Mole Ethoxylated C12 Alcohol, Ammonium Sulfate [A12-11]	–	–	–	–	–	–
3.5	4	3.5	4.1	–	–	–	–	–	7 Mole Ethoxylated C10 Alcohol, Ammonium Sulfate [A10-14]	–	–	–	–	–	–
3.9	4.1	2.8	3.5	–	–	–	–	–	7 Mole Ethoxylated C12 Alcohol, Ammonium Sulfate [A12-14]	–	–	–	–	–	–
1.5	2.2	1.5	2	–	–	–	–	–	15 Mole Ethoxylated C10 Alcohol, Ammonium Sulfate [A10-17]	–	–	–	–	–	–
4	3.8	3.5	4.2	–	–	–	–	–	15 Mole Ethoxylated C12 Alcohol, Ammonium Sulfate [A12-17]	–	–	–	–	–	–
–	–	–	–	42-64 % actives	64-80 % actives	80-100 % actives	0-42 % actives	–	CCCCCCCCCCOS(=O)(=O)O.N [sat. analog of A10-2, reference compound]	–	–	–	–	–	–
–	–	–	–	31-63 % actives	63-74 % actives	74-100 % actives	–	0-31 % actives	CCCCCCCCCCCCOS(=O)(=O)O.N [sat. analog of A12-2, reference compound]	–	–	–	–	–	–
